From US20230257355A1, “HYDROXAMIC ACID-CONTAINING COMPOUND, AND PREPARATION METHOD AND USE THEREOF” (CHINA PHARMACEUTICAL UNIVERSITY, priority 2020, published 2023)

What was measured:
ASM = target: T1, ASM (Homo sapiens, UniProt P17405); experiment: Inhibition of compounds on ASM activity (cell protein extract, fluorescently-labeled substrate); type: biochemical; conditions: for IC50: protein extracted from cultivated cells, fluorescently-labeled substrate
T1 construct: A protein in cultivated cells was extracted, a buffer and a fluorescently-labeled reaction substrate were added; endogenous in cells
T1 sequence (P17405 47-631): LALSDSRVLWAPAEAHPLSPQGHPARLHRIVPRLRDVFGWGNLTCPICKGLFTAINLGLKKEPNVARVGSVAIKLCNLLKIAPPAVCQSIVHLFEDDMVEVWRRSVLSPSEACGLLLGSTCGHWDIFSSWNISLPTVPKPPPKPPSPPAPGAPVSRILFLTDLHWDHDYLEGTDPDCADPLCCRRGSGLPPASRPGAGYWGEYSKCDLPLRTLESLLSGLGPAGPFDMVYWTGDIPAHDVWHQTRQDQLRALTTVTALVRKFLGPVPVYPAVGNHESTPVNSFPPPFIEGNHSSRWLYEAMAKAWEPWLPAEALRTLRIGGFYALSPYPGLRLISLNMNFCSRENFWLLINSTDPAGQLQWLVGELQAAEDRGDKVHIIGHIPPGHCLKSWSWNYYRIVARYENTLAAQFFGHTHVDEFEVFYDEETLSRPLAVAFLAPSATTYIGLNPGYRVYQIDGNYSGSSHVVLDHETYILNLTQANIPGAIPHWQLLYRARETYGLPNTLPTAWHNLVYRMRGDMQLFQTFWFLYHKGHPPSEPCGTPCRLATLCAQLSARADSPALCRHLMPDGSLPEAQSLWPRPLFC
Experimental: ASM can hydrolyze sphingomyelin to produce ceramides in cells. For a specified amount of a fluorescently-labeled reaction substrate (Avanti Corporation, USA), different ASM activities catalyze the generation of a product at different amounts. Thus, an ASM activity level can be investigated by detecting a product content. The experiment design of the present disclosure is carried out according to the above principle.
A blank control group was set. After the reaction was completed, fluorescence analysis was performed, and finally an IC50 value of the compound was calculated.
A blank control group was set. After the reaction was completed, fluorescence analysis was performed.

[1] = test system: ApoE-knockout mice AS model; experiment: Anti-AS effect: aortic plaque area in ApoE-knockout mice on high-fat diet; type: in vivo
Experimental: The mice were randomly divided into 6 groups, with 5 mice in each group. The groups were intraperitoneally injected respectively with a blank solvent, a blank solvent, 12 mg/kg compound I-1, and 40 mg/kg compound I-1 once every day for 8 weeks. After the experiment was completed, the animals were sacrificed and main arteries were collected. The main arterial vessels were directly observed and photographed under a microscope. […] The collected arterial vessels were subjected to lipid staining with ORO and then photographed under a microscope, and image analysis was performed.

[2] = test system: chronic depression rat model established by reserpine; experiment: Open field test (OFT) in reserpine chronic depression rat model; type: in vivo; conditions: rats
Experimental: (§1) In the present disclosure, a chronic depression rat model was established by reserpine (reference: NeurotoxRes, 2014, doi: 10.1007/s12640-013-9454-8). Specific experimental steps were as follows: In a normal group, 8 rats were randomly selected and raised normally. Rats in the remaining groups each were injected intraperitoneally with reserpine at 0.2 mg/kg once every day for three days. Rats in the remaining groups each were intraperitoneally injected with the compound I-1 at different doses (3 mg/kg, 6 mg/kg, and 12 mg/kg), a positive drug amitriptyline (6 mg/kg), or no drug. Two weeks after the administration, the OFT was performed (reference: China Pharmacy, 2016, 27 (19): 2697-2699), and after the OFT was completed, the SPT was performed.

[3] = test system: chronic depression rat model established by reserpine; experiment: Sucrose preference test (SPT) in reserpine chronic depression rat model; type: in vivo; conditions: rats
Experimental: as §1, with “performed. After the OFT was completed, all rats were first trained to drink 10 g/L sucrose-containing water. That is, tap water was replaced with 10 g/L sucrose-containing water within the first 48 h, then the water and food were deprived for 20 h, and then 10 g/L sucrose-containing water was provided for drinking and the drinking amount within 24 h was calculated.” for “performed.”

[4] = test system: ApoE-knockout mice AS model; experiment: Plasma lipid indexes in ApoE-knockout AS mice; type: in vivo; conditions: versus non-administration Control group
Experimental: The mice were randomly divided into 6 groups, with 5 mice in each group. The groups were intraperitoneally injected respectively with a blank solvent, a blank solvent, 12 mg/kg compound I-1, and 40 mg/kg compound I-1 once every day for 8 weeks. After the experiment was completed, the animals were sacrificed and main arteries were collected.

[5] = i.p. 3, 6, 12 mg/kg, two weeks after administration

| SMILES | IC50 (ASM) | inhibition at 1 µM (ASM) | inhibition at 10 µM (ASM) | also measured |
| --- | --- | --- | --- | --- |
| O=C(NO)c1ccc2ncn(-c3ccc(OCc4cccc(C(F)(F)F)c4)cc3)c2c1 [Compound I-6] | 1.24 µM |  |  |  |
| O=C(NO)c1ccc2ncn(-c3ccc(OCc4ccccn4)cc3)c2c1 [Compound I-13] |  | 14% | 22% |  |
| O=C(NO)c1ccc2ncn(-c3ccc(OCc4ccc(C(F)(F)F)cc4)cc3)c2c1 [Compound I-3] | 3.68 µM |  |  |  |
| O=C(NO)c1ccc2ncn(-c3ccc(OCc4cc(C(F)(F)F)cc(C(F)(F)F)c4)cc3)c2c1 [Compound I-9] |  | 80% | 93% |  |
| N#Cc1ccc(COc2ccc(-n3cnc4ccc(C(=O)NO)cc43)cc2)cc1 [Compound I-11] |  | 8% | 83% |  |
| O=C(NO)c1ccc2ncn(-c3ccc(OCc4ccc(C(F)(F)F)cn4)cc3)c2c1 [Compound I-14] |  | 24% | 76% |  |
| O=C(NO)c1ccc2ncn(-c3ccc(OCc4ccc(C(F)(F)F)cc4C(F)(F)F)cc3)c2c1 [Compound I-8] | 1.16 µM |  |  |  |
| O=C(NO)c1ccc2ncn(CCCOCc3ccc(C(F)(F)F)cc3)c2c1 [Compound I-5] | 2.78 µM |  |  |  |
| O=C(NO)c1ccc2ncn(-c3ccc(OCc4ccc(Cl)c(C(F)(F)F)c4)cc3)c2c1 [Compound I-7] | 0.39 µM |  |  |  |

Now from value to molecule, other results behind:

| IC50 (ASM) | inhibition at 1 µM (ASM) | inhibition at 10 µM (ASM) | SMILES | also measured |
| --- | --- | --- | --- | --- |
|  | 69% | 88% | COc1ccc(COc2ccc(-n3ccc4ccc(C(=O)NO)cc43)cc2)cc1 [II-2, 1-(4-((4-methoxybenzyl)oxy)phenyl)-N-hydroxy-1H-indole-6-carboxamide] |  |
| 0.47 µM |  |  | O=C(NO)c1ccc2ncn(-c3ccc(OCc4ccc(Cl)cc4)cc3)c2c1 [Compound I-1, 1-(4-((4-chlorobenzyl)oxy)phenyl)-N-hydroxy-1H-benzo[d]imidazole-6-carboxamide] | Plaque area of AS (ORO lipid staining) ([1]; 12 mg/kg i.p. once daily for 8 weeks): significantly reduce; Plaque area of AS (ORO lipid staining) ([1]; 40 mg/kg i.p. once daily for 8 weeks): significantly reduce; Aortic arch plaque area (direct microscopy) ([1]; i.p. once daily for 8 weeks, different doses (12 and 40 mg/kg)): significantly reduced; OFT behavioral indexes versus amitriptyline (6 mg/kg) ([2]; high-dose 12 mg/kg i.p.): comparable to that of rats in the amitriptyline control group; OFT frequency of grooming [2, 5]: significantly improved; OFT frequency of upright [2, 5]: significantly improved; OFT times passing the grid [2, 5]: significantly improved; OFT total time in center [2, 5]: significantly improved; SPT effect versus positive control amitriptyline (6 mg/kg) ([3]; high-dose 12 mg/kg i.p.): slightly lower than that of the positive control drug amitriptyline; SPT effect versus model group ([3]; high-dose 12 mg/kg i.p., p < 0.01): significantly different from that of the model group; SPT uptake capacity for sucrose-containing water ([3]; i.p., 10 g/L sucrose water, drinking amount within 24 h): significantly restored; HDL in plasma [4]: no impact; LDL level in plasma [4]: significantly increased; Total TG in plasma [4]: no impact; Total cholesterol in plasma [4]: no impact |
|  | 70% | 82% | COc1ccc(COc2ccc(-n3cnc4ccc(C(=O)NO)cc43)cc2)cc1 [Compound I-12] |  |
|  | 20% | 50% | O=C(NO)c1ccc2ncn(-c3ccc(OCc4ccc(F)cc4)cc3)c2c1 [Compound I-10] |  |
|  | 74% | 91% | O=C(NO)c1ccc2ccn(-c3ccc(OCc4ccc(C(F)(F)F)cc4)cc3)c2c1 [II-1, 1-(4-((4-trifluoromethylbenzyl)oxy)phenyl)-N-hydroxy-1H-indole-6-carboxamide] |  |
